Laboratory results as given in US8735398B2 (Bristol-Myers Squibb Company, priority 2009, dated 2014).
Like-named read-outs stand apart in the source and are kept apart here.

Test system: HCV 1b genotype
Test: HCV replicon assay (HCV-neo replicon cells, wild-type)
Type: cell-based, Hepatitis C virus
Settings: HCV 1b genotype replicon
Protocol: An HCV Replicon assay was utilized in the present disclosure, and was prepared, conducted and validated as described in commonly owned PCT/US2006/022197 and in O'Boyle et al., Antimicrob. Agents Chemother, 49(4):1346-1353 (April 2005). Assay methods incorporating luciferase reporters have also been used as described (Apath.com).
HCV-neo replicon cells and replicon cells containing resistance substitutions in the NS5A region were used to test the currently described family of compounds.
The compounds were determined to have differing degrees of reduced inhibitory activity on cells containing mutations vs. the corresponding inhibitory potency against wild-type cells. Thus, the compounds of the present disclosure can be effective in inhibiting the function of the HCV NS5A protein and are understood to be as effective in combinations as previously described in application PCT/US2006/022197 and commonly owned WO 04/014852. It should be understood that the compounds of the present disclosure can inhibit multiple genotypes of HCV. […] In one embodiment, compounds of the present disclosure are inhibitory versus 1a, 1b, 2a, 2b, 3a, 4a, and 5a genotypes.

[1] = Hepatitis C virus, class symbol, read-out: EC50 Range against HCV 1b
[2] = Hepatitis C virus, class symbols, read-out: EC50 Range against HCV 1b
[3] = Hepatitis C virus, read-out: EC50 1b

| SMILES | EC50 [1] [nM] | other results |
| --- | --- | --- |
| C[C@H](O)[C@@H](NC(=O)c1ccccc1)C(=O)N1CCC[C@H]1C(=O)Nc1ccc(-c2cnc(-c3ccc(NC(=O)[C@@H]4CCCN4C(=O)[C@H](NC(=O)c4ccccc4)[C@H](C)O)cc3)o2)cc1 [Example D-18, (R,S,2S,2′S)-N,N′-(4,4′-(oxazole-2,5-diyl)bis(4,1-phenylene))bis(1-((2R,3S)-2-benzamido-3-hydroxybutanoyl)pyrrolidine-2-carboxamide)] |  | EC50 (class symbol, read-out: EC50 Range against HCV 1b): 1000 to 10000 nM; EC50 (read-out: EC50 1b): 5960 nM |
| COc1cccc2c(C(=O)N3CCC[C@H]3C(=O)Nc3ccc(-c4cnc(-c5ccc(NC(=O)[C@@H]6CCCN6C(=O)[C@@H](c6ccccc6)N(C)C)cc5)o4)cc3)nc(Cl)cc12 [OL-61, (2S)-1-((3-chloro-5-methoxy-1-isoquinolinyl)carbonyl)-N-(4-(2-(4-((((2S)-1-((2R)-2-(dimethylamino)-2-phenylacetyl)-2-pyrrolidinyl)carbonyl)amino)phenyl)-1,3-oxazol-5-yl)phenyl)-2-pyrrolidinecarboxamide] | 4.57 to 99 |  |
| Cc1cc(C(=O)N2CCC[C@H]2C(=O)Nc2ccc(-c3cnc(-c4ccc(NC(=O)[C@@H]5CCCN5C(=O)c5cc(C)c(C)o5)cc4)o3)cc2)oc1C [XY-27, (2S,2′S)-N,N′-(1,3-oxazole-2,5-diyldi-4,1-phenylene)bis(1-(4,5-dimethyl-2-furoyl)-2-pyrrolidinecarboxamide)] |  | EC50 [2]: 100 to 999 nM |
| CC(C(=O)N1CCC[C@H]1C(=O)Nc1ccc(-c2cnc(-c3ccc(NC(=O)[C@@H]4CCCN4C(=O)C(C)N4C(=O)C5C6CCC(C6)C5C4=O)cc3)o2)cc1)N1C(=O)C2C3CCC(C3)C2C1=O (stereo partly drawn) [JR-18, (2S,2′S)-N,N′-(2,5-oxazolediyldi-4,1-phenylene)bis[1-[2-(octahydro-1,3-dioxo-4,7-methano-2H-isoindol-2-yl)-1-oxopropyl]-2-pyrrolidinecarboxamide]] |  | EC50 [2]: 1000 to 10000 nM |
| CC(=O)N1CCC[C@H]1C(=O)Nc1ccc(-c2cc(-c3ccc(NC(=O)[C@@H]4CCCN4C(=O)Cc4ccccc4)cc3)n[nH]2)cc1 [OL-36, (2S)-1-acetyl-N-(4-(3-(4-((((2S)-1-(phenylacetyl)-2-pyrrolidinyl)carbonyl)amino)phenyl)-1H-pyrazol-5-yl)phenyl)-2-pyrrolidinecarboxamide] | 100 to 999 |  |
| O=C(Nc1ccc(-c2cnc(-c3ccc(NC(=O)[C@@H]4CCCN4C(=O)C(O)Cc4cccnc4)cc3)o2)cc1)[C@@H]1CCCN1C(=O)C(O)Cc1cccnc1 (stereo partly drawn) [JR-4, (2S,2′S)-N,N′-(2,5-oxazolediyldi-4,1-phenylene)bis[1-[2-hydroxy-1-oxo-3-(3-pyridinyl)propyl]-2-pyrrolidinecarboxamide]] |  | EC50 [2]: 1000 to 10000 nM |
| CN(C)Cc1nc(-c2ccc(NC(=O)[C@@H]3CCCN3C(=O)Cc3ccccc3)cc2)c(-c2ccc(NC(=O)[C@@H]3CCCN3C(=O)Cc3ccccc3)cc2)o1 [OL-6] | 1000 to 10000 |  |
| CC(C)(C)O[C@H]1CN[C@H](C(=O)Nc2ccc(-c3cnc(-c4ccc(NC(=O)[C@@H]5C[C@@H](OC(C)(C)C)CN5)cc4)o3)cc2)C1 [XY-60, (2S,4R,2′S,4′R)-N,N′-(1,3-oxazole-2,5-diyldi-4,1-phenylene)bis(4-tert-butoxy-2-pyrrolidinecarboxamide)] |  | EC50 [2]: 1000 to 10000 nM |
| CCC(=O)N1CCC[C@H]1C(=O)Nc1ccc(-c2cnc(-c3ccc(NC(=O)[C@@H]4CCCN4C(=O)CC)cc3)o2)cc1 [JG-8, (2S,2′S)-N,N′-(1,3-oxazole-2,5-diyldi-4,1-phenylene)bis(1-propionyl-2-pyrrolidinecarboxamide)] | 100 to 999 |  |
| CC(=O)N1CCC[C@H]1C(=O)Nc1ccc(-c2nnc(-c3ccc(NC(=O)[C@@H]4CCCN4C(=O)Cc4ccccc4)cc3)o2)cc1 [Example D-54, (2S)-1-acetyl-N-[4-[5-[4-[[[(2S)-1-(phenylacetyl)-2-pyrrolidinyl]carbonyl]amino]phenyl]-1,3,4-oxadiazol-2-yl]phenyl]-2-pyrrolidinecarboxamide] | 1000 to 10000 | EC50 [3]: 4760 nM |
| CC1(C(=O)N2CCC[C@H]2C(=O)Nc2ccc(-c3cnc(-c4ccc(NC(=O)[C@@H]5CCCN5C(=O)C5(C)CCC(=O)N5Cc5ccccc5)cc4)o3)cc2)CCC(=O)N1Cc1ccccc1 (stereo partly drawn) [Example D-23, (2S,2′S)-N,N′-(1,3-oxazole-2,5-diyldi-4,1-phenylene)bis(1-((1-benzyl-2-methyl-5-oxo-2-pyrrolidinyl)carbonyl)-2-pyrrolidinecarboxamide)] | 1000 to 10000 |  |
| CC(C)(C)O[C@@H]1C[C@@H](C(=O)Nc2ccc(-c3cnc(-c4ccc(NC(=O)[C@@H]5C[C@@H](OC(C)(C)C)CN5C(=O)[C@H]5CCCO5)cc4)o3)cc2)N(C(=O)[C@H]2CCCO2)C1 [XY-68, (2S,4R,2′S,4′R)-N,N′-(1,3-oxazole-2,5-diyldi-4,1-phenylene)bis(4-tert-butoxy-1-((2R)-tetrahydro-2-furanylcarbonyl)-2-pyrrolidinecarboxamide)] |  | EC50 [2]: 100 to 999 nM |
| CN(C)[C@H](C(=O)N1CCC[C@H]1C(=O)Nc1ccc(-c2nnc(-c3ccc(NC(=O)[C@@H]4CCCN4C(=O)[C@H](c4ccccc4)N(C)C)cc3)o2)cc1)c1ccccc1 [RK-39, (2S,2′S)-N,N′-(1,3,4-oxadiazole-2,5-diyldi-4,1-phenylene)bis(1-((2S)-2-(dimethylamino)-2-phenylacetyl)-2-pyrrolidinecarboxamide)] |  | EC50 [2]: < 4.57 nM; EC50 [3]: < 5 nM |
| CC(=O)N1CCC[C@H]1C(=O)Nc1ccc(-c2ccc(-c3ccc(NC(=O)[C@@H]4CCCN4C(C)=O)cc3)o2)cc1 [JG-55, (2S,2′S)-N,N′-(2,5-furandiyldi-4,1-phenylene)bis(1-acetyl-2-pyrrolidinecarboxamide)] | 100 to 999 |  |
| O=C(Nc1ccc(-c2cc(-c3ccc(NC(=O)[C@@H]4CCCN4C(=O)c4nc5ccccc5s4)cc3)[nH]n2)cc1)[C@@H]1CCCN1C(=O)c1nc2ccccc2s1 [JG-41, (2S,2′S)-N,N′-(1H-pyrazole-3,5-diyldi-4,1-phenylene)bis(1-(1,3-benzothiazol-2-ylcarbonyl)-2-pyrrolidinecarboxamide)] | 100 to 999 |  |
| CC(=O)N1CCC[C@H]1C(=O)Nc1ccc(-c2nnc(-c3ccc(NC(=O)[C@@H]4CCCN4C(=O)Cc4cccnc4)cc3)o2)cc1 [Example D-64, (2S)-1-acetyl-N-[4-[5-[4-[[[(2S)-1-(3-pyridinylacetyl)-2-pyrrolidinyl]carbonyl]amino]phenyl]-1,3,4-oxadiazol-2-yl]phenyl]-2-pyrrolidinecarboxamide] | 1000 to 10000 | EC50 [3]: 6570 nM |
| CC(=O)N1CCC[C@H]1C(=O)Nc1ccc(-c2cnc(-c3ccc(NC(=O)[C@@H]4C[C@@H](O)CN4C(=O)OCc4ccccc4)cc3)o2)cc1 [MS-3, benzyl (2S,4R)-2-((4-(5-(4-((((2S)-1-acetyl-2-pyrrolidinyl)carbonyl)amino)phenyl)-1,3-oxazol-2-yl)phenyl)carbamoyl)-4-hydroxy-1-pyrrolidinecarboxylate] | 100 to 999 |  |
| CC(=O)N[C@@H](C(=O)N1[C@H](C(=O)Nc2ccc(-c3cnc(-c4ccc(NC(=O)[C@@H]5C[C@@H]6C[C@@H]6N5C(=O)[C@H](NC(C)=O)c5ccccc5)cc4)o3)cc2)C[C@@H]2C[C@@H]21)c1ccccc1 | 4.57 to 99 | EC50 [3]: < 5 nM |
| O=C(Nc1ccc(-c2cnc(-c3ccc(NC(=O)[C@@H]4CCCN4C(=O)[C@H](O)c4ccccc4Cl)cc3)o2)cc1)[C@@H]1CCCN1C(=O)[C@H](O)c1ccccc1Cl [JG-26, (2S,2′S)-N,N′-(1,3-oxazole-2,5-diyldi-4,1-phenylene)bis(1-((2R)-2-(2-chlorophenyl)-2-hydroxyacetyl)-2-pyrrolidinecarboxamide)] | < 4.57 |  |
| O=C(Nc1ccc(-c2cnc(-c3ccc(NC(=O)[C@@H]4CCCN4C(=O)C4CCC4)cc3)o2)cc1)[C@@H]1CCCN1C(=O)C1CCC1 [JG-9, (2S,2′S)-N,N′-(1,3-oxazole-2,5-diyldi-4,1-phenylene)bis(1-(cyclobutylcarbonyl)-2-pyrrolidinecarboxamide)] | 100 to 999 |  |
| O=C(Nc1ccc(-c2nnc(-c3ccc(NC(=O)[C@@H]4CCCN4C(=O)c4ccc5ccccc5n4)cc3)o2)cc1)[C@@H]1CCCN1C(=O)c1ccc2ccccc2n1 [RK-10, (2S,2′S)-N,N′-(1,3,4-oxadiazole-2,5-diyldi-4,1-phenylene)bis(1-(2-quinolinylcarbonyl)-2-pyrrolidinecarboxamide)] | 1000 to 10000 |  |
| O=C(Nc1ccc(-c2cnc(-c3ccc(NC(=O)[C@@H]4CCCN4C(=O)CN4CCCCC4)cc3)o2)cc1)[C@@H]1CCCN1C(=O)CN1CCCCC1 [XY-41, (2S,2′S)-N,N′-(1,3-oxazole-2,5-diyldi-4,1-phenylene)bis(1-(1-piperidinylacetyl)-2-pyrrolidinecarboxamide)] |  | EC50 (class symbols, read-out: EC50 Range against HCV 1b): 1000 to 10000 nM |
| COc1cc(C(=O)N2CCC[C@H]2C(=O)Nc2ccc(-c3nnc(-c4ccc(NC(=O)[C@@H]5CCCN5C(=O)c5cc(Cl)nc(OC)c5)cc4)o3)cc2)cc(Cl)n1 [RK-40, (2S,2′S)-N,N′-(1,3,4-oxadiazole-2,5-diyldi-4,1-phenylene)bis(1-(2-chloro-6-methoxyisonicotinoyl)-2-pyrrolidinecarboxamide)] |  | EC50 [2]: 1000 to 10000 nM |
| CC(=O)N1CCC[C@H]1C(=O)Nc1ccc(-c2cnc(-c3ccc(NC(=O)[C@@H]4C=CCN4C(=O)c4cccs4)cc3)o2)cc1 [MS-7, (2S)-N-[4-[5-[4-[[[(2S)-1-acetyl-2-pyrrolidinyl]carbonyl]amino]phenyl]-2-oxazolyl]phenyl]-2,5-dihydro-1-(2-thienylcarbonyl)-1H-pyrrole-2-carboxamide] | 1000 to 10000 |  |
